Experimental data taken from PMC8560896 (Frontiers in Chemistry, 2021).
Entries after “also recorded” stand apart in the source; their conditions may differ.

What was measured:
SH-SY5Y cells [1] = experiment: ROS measurement (H2DCF-DA, flow cytometry) after H2O2 insult; format: cell-based, human; details: for ROS measurement 250 nM / ROS measurement 500 nM / ROS measurement 1 μM / ROS measurement 10 μM: fluorescence relative to control = 1, H2O2 (100 μM) alone 6.31, 24 h + 3 h; for ROS measurement 250 nM: hybrid 250 nM; for ROS measurement 500 nM: hybrid 500 nM; for ROS measurement 1 μM: hybrid 1 μM; for ROS measurement 10 μM: hybrid 10 μM
Procedure: H2DCF-DA is a molecule that easily diffuses into cells and, through intracellular esterases, is split into H2DCF following the loss of the acetate group. H2DCF remains trapped within cells and is oxidized by intracellular ROS to form the highly fluorescent DCF compound. Spectrofluorimetric quantification of the DCF probe, provides the content of the ROS in the cell.
[…]. Subsequently, the growth medium was replaced with a fresh phenol red-free medium containing H2DCF-DA (25 μM). After 30 min at 37°C, the cells were washed twice to remove the extracellular H2DCF-DA, centrifuged, re-suspended in PBS, exposed to H2O2 (100 μM, 30 min) and the fluorescence was evaluated by flow cytometric analysis using a FACS Accury laser flow cytometer (Becton Dickinson). The results were expressed by setting the control equal to 1 and reporting all other values. H2O2 alone was used as a positive control.

SH-SY5Y cells [2] = experiment: MTT cell viability after H2O2 damage (neuroprotection); format: cell-based, human; details: hybrids 21 h, then H2O2 100 μM 3 h; vs hydrogen peroxide alone
SH-SY5Y cells [3] = experiment: MTT cell viability assay; format: cell-based, human; details: for Effect on cell viability: 0.25–100 μM, 24 h; for IC50: Homo sapiens, neurotoxic concentration, SH-SY5Y
Excerpt: The MTT test is based on the observation that live cells can reduce the water-soluble yellow tetrazolium salt [3-(4,5-dimethylthiazol-2-yl)-2,5-diphenyltetrazolium bromide] into water-insoluble blue/magenta formazan crystals, by dehydrogenase of the active mitochondria. Dissolved formazan crystals can be quantified using a spectrophotometer and the values obtained are in direct correlation to the number of metabolically active cells. For this reason, this colorimetric assay is used to evaluate cell viability.
The MTT assay was performed as reported in literature ([Corasaniti et al., 2007]). […].
The optical density was measured at wavelengths of 540 and 690 nm using a spectrophotometer (X MARK Spectrophotometer Microplate Bio-Rad).

[4] = Cupric ion reducing antioxidant capacity (CUPRAC); details: for TEAC: Supplementary Table 1, ε of compound divided by ε of Trolox; for CUPRAC: Trolox equivalent, 2% M-β-CD, A450 after 40 min
Procedure: The CUPRAC test was performed as reported by [Ozyürek et al. (2008)] on the new compounds in the unacetylated form.
CuCl2 solution 10 mM, was prepared by dissolving […] CuCl2 in water, and diluting to 250 ml. Neocuproine (Nc) solution 7.5 mM, was prepared by dissolving 15 mg of neocuproine in 10 ml of absolute EtOH. Ammonium acetate 1.0 M was prepared by dissolving 19.27 g of NH4Ac in 250 ml of water. The cyclodextrin (2% M-β-CD) stock solution was prepared in water-acetone (9:1 v/v). The standard solution of Trolox 1 mM was prepared in 2% M-β-CD. All working solutions of antioxidant 1 mM were freshly prepared in 2% M-β-CD.
1 ml of Cu(II) + 1 ml of Nc + 1 ml of NH4Ac buffer + x mL of antioxidant solution + (1.1 − x) 2% M-β-CD in 1:9 water–acetone mixture (v/v); total volume = 4.1 ml, measure A 450 against a reagent blank after 40 min of reagent addition at room temperature.
The Trolox equivalent antioxidant capacity (TEAC) is defined as the millimolar concentration of a Trolox solution having the antioxidant capacity equivalent to a 1.0 mM solution of the substance under investigation. The […] values were simply calculated by dividing the molar absorptivity ε of the species under investigation by that of Trolox under corresponding conditions. The concentration linearity ranges for all the antioxidants tested are reported in the Supplementary Material (See Supplementary Table S1).

[5] = Oxygen radical absorbance capacity (ORAC) by fluorescence; details: for ORAC: means ± SEM of three independent observations, sample 10 μM in 7% RMCD solution
Procedure: The measurement temperature was set at 37°C. A regression equation was built by comparing the net area under the FL decay curve and the Trolox concentration according to the following equation: Y(µM Trolox)=a+bX(AUC−n) and the final ORACFL values were expressed as Trolox equivalents (μmol g^−1).

[6] = Metal-chelating properties by UV-vis spectroscopy; details: compound 75 μM with CuSO4, FeSO4, FeCl3 or ZnCl2 150 μM in MeOH, 30 min
Procedure: The complexing studies for all the unprotected hybrids were carried out through a UV–vis spectroscopy assay with the wavelength ranging from 200 to 400 nm. The unprotected hybrids were dissolved in a 5% DMSO methanolic solution (3 mM). This solution was diluted with methanol to 150 µM. 2 ml of the 150 µM solution were mixed with 2 ml of methanol to record the spectra of the hybrids alone, or with 2 ml of the salts solution (300 µM). Then, the absorption spectra of the antioxidants (75 μM) alone or in the presence of CuSO4, FeSO4, FeCl3 or ZnCl2 (150 μM) mixed for 30 min in methanol at room temperature were recorded in a 1 cm quartz cell.

| SMILES | ROS measurement 250 nM (SH-SY5Y cells [1]) | ROS measurement 500 nM (SH-SY5Y cells [1]) | ROS measurement 1 μM (SH-SY5Y cells [1]) | ROS measurement 10 μM (SH-SY5Y cells [1]) | Protective effect on cell viability against H2O2 damage (SH-SY5Y cells [2]) | Effect on cell viability (SH-SY5Y cells [3]) | IC50 (SH-SY5Y cells [3]) [µM] | TEAC [4] | CUPRAC [4] | ORAC [5] [µmol trolox l^−1] | Metal chelating activity [6] | Reduction of ORAC antioxidant capacity compared to HT1 [5] [times] | Reduction of ROS amount (in words) (SH-SY5Y cells [1]; H2O2 100 μM as toxic insult) |
| --- | --- | --- | --- | --- | --- | --- | --- | --- | --- | --- | --- | --- | --- |
| COc1cc(CCOC(=O)C2CCN(Cc3ccccc3)CC2)ccc1OC(C)=O [HT3a] | 2.27 | 1.94 | 1.58 | 2.13 | statistically significant increase in cell viability; also recorded: able to attenuate cell injury against oxidative stress | reduction in cell viability was found for compounds HT3a and HT4a at concentrations higher than 10 μM | > 10 | – | – | – | – | – | – |
| COc1cc(CCOC(=O)C2CCN(Cc3ccccc3)CC2)ccc1O [HT3] | 3.68 | 2.91 | 2.18 | 2.76 | – | – | > 25 | 1,80 | 1.80 (mmol of trolox)/(mmol of tested compound) | 45.2 ± 3.6 | – | – | – |
| OCCc1ccc(O)c(O)c1 [HT, hydroxytyrosol, reference compound] | – | – | – | – | – | – | – | 2,82 | 2.82 (mmol of trolox)/(mmol of tested compound) | 38.8 ± 4.4 | – | – | – |
| O=C(OCCc1ccc(O)c(O)c1)C1CCN(Cc2ccccc2)CC1 [HT1] | 6.18 | 5.25 | 5.47 | 5.49 | – | – | 50 | 3,36 | 3.36 (mmol of trolox)/(mmol of tested compound) | 21.2 ± 1.6 | able to chelate only Copper (II) efficiently; also recorded: showed metal chelating properties | – | – |
| O=C(OCCc1cc(O)c(O)cc1[N+](=O)[O-])C1CCN(Cc2ccccc2)CC1 [HT2] | 2.21 | 1.97 | 1.12 | 1.38 | statistically significant increase in cell viability; also recorded: able to attenuate cell injury against oxidative stress | – | > 50 | 2,77 | 2.77 (mmol of trolox)/(mmol of tested compound) | 7.6 ± 0.2 | chelates all the metal cations; also recorded: showed metal chelating properties | ~3 | the more effective one to reduce the ROS amount to the physiological values |
| CC(=O)Oc1ccc(CCOC(=O)C2CCN(Cc3ccccc3)CC2)cc1 [HT4a] | 2.34 | 2.77 | 2.94 | 3.01 | statistically significant increase in cell viability | reduction in cell viability was found for compounds HT3a and HT4a at concentrations higher than 10 μM | > 10 | – | – | – | – | – | – |
| O=C(OCCc1ccc(O)cc1)C1CCN(Cc2ccccc2)CC1 [HT4] | 3.9 | 3.2 | 3.64 | 3.67 | – | – | > 25 | 0,99 | 0.99 (mmol of trolox)/(mmol of tested compound) | 23.0 ± 2.0 | – | – | – |
| Cc1c(C)c2c(c(C)c1O)CCC(C)(C(=O)O)O2 (stereo not shown) [Trolox, reference compound] | – | – | – | – | – | – | – | 1 | 1 (mmol of trolox)/(mmol of tested compound) | – | – | – | – |
| CC(=O)Oc1ccc(CCOC(=O)C2CCN(Cc3ccccc3)CC2)cc1OC(C)=O [HT1a] | 2.99 | 2.63 | 2.51 | 2.66 | – | – | > 50 | – | – | – | – | – | – |
